From patent US20020128228A1, “Compositions and methods for the treatment of cancer” (priority 2000, published 2002)
Where two headings read alike, the source gives them in different places.

How the values were obtained:
[1] = after intravenous administration; cited from earlier work
[2] = single dose schedule, cited from earlier work

In the case of O=C1CCC(N2C(=O)c3ccccc3C2=O)C(=O)N1 (racemic) [thalidomide, 2-(2,6-dioxo-3-piperidinyl)-1H-isoindole-1,3(2H)-dione], the recurrence (malignant melanoma; single treatment with thalidomide continued for one year) is reported as “only recurrence in the leg” and the metastases and adenopathy (malignant melanoma; thalidomide alone, maximum 200 mg/d, after dacarbazine was discontinued, additional 3 months) is reported as “resolution of the metastases continued and virtually no adenopathy was detected”.
In the case of Cn1nnc2c(C(N)=O)ncn2c1=O [temozolomide, 8-carbamoyl-3-methyl-imidazo-[5.1.d]-1,2,3,5-tetrazin-4(3H)-one], the “half life distribution (plasma, biexponential decline)” value [1] is listed as 1.8 h, the nausea and vomiting ([2]; dosages up to 700 mg/m^2) is listed as “mild” and the nausea and vomiting ([2]; doses higher than 700 mg/m^2) is listed as “Grade 4 toxicity”.
